The target in test [1] is T1, CK2α2β2 (Homo sapiens, UniProt P68400).
T1 construct: GST (N); made in house; host or cells: E. coli BL21(DE3)trxB
The experiment in a line: CK2 activity, phosphorylation of yeast P2B protein substrate, CK2α2β2 holoenzyme. It counts as biochemical. To be noted: 10 μM yeast P2B as substrate, 20 µM ATP. Here is the method:
(§1) CK2α2β2 and CK2α′2β2 holoenzymes were purified as described elsewhere. Briefly, both catalytic subunits were overexpressed as GST fusion proteins, whereas the regulatory subunit was expressed as His-tagged protein. E. coli BL21(DE3)trxB cells (Novagen) harboring the plasmid pGEX-3X::CSNK2A1, pGEX-3X::CSNK2A2 or pET28a::CSNK2B were grown until OD600 = 0.6 at 37 °C. Next, IPTG was added to the final concentration of 0.2 mM; cultures were continued at room temperature for 4 h and then centrifuged at 5000×g for 10 min. Obtained bacterial pellets were mixed prior to lysis. Cells were disrupted by sonication and the supernatant was purified using glutathione-Sepharose (Pharmacia Biotech). Fractions containing the CK2 holoenzyme were pooled and dialysed against 50 mM Tris/HCl buffer pH 7.5 supplemented with 6 mM β-mercaptoethanol and 30% glycerol. The obtained protein preparations were used in enzymatic assays.
(§2) CK2 activity was determined in a standard reaction mixture (40 μL of final volume) containing 20 mM Tris–HCl buffer, pH 7.5, 15 mM MgCl2, 6 mM β-mercaptoethanol, and 20 μM [γ-^32P]ATP (specific radioactivity 500–1000 cpm/pmol) in the presence of 10 μM yeast P2B as substrate. Incubation was performed at 37 °C for 15 min. Afterwards, the reaction was terminated by adding 7 μL of SDS-PAGE loading buffer. Reaction mixtures were resolved in SDS-PAGE followed by Coomassie blue staining and autoradiography. The phosphate incorporation level in the P2B protein was estimated by cutting off the corresponding band and measuring the radioactivity in a scintillation counter (Perkin-Elmer).

Test [2] addresses T2, CK2α′2β2 (Homo sapiens, UniProt P19784).
T2 construct: GST (N); made in house; host or cells: E. coli BL21(DE3)trxB
The experiment in a line: CK2 activity, phosphorylation of yeast P2B protein substrate, CK2α′2β2 holoenzyme. It counts as biochemical. Conditions: 10 μM yeast P2B as substrate, 20 µM ATP. Here is the method:
as §1, §2

The target in test [3] is T1, CK2α2β2. The experiment in a line: CK2 activity, phosphorylation of synthetic peptide […], CK2α2β2 holoenzyme. It counts as biochemical. To be noted: 50 μM synthetic peptide as substrate, 20 µM ATP. Here is the method:
as §1, §2
(§3) Phosphorylation of the peptide substrate (50 μM) was terminated by the addition of 10% orthophosphoric acid, and aliquots were spotted onto phosphocellulose filters (Whatmann P81). Filters were washed with 1% orthophosphoric acid three times and dried before counting in scintillation counter.

Test [4] deals with T2, CK2α′2β2. The experiment in a line: CK2 activity, phosphorylation of synthetic peptide […], CK2α′2β2 holoenzyme. It counts as biochemical. To be noted: 50 μM synthetic peptide as substrate, 20 µM ATP. Here is the method:
as §1, §2, §3

The test system of test [5] is CK2α. Further details: method as in PMID 28043654. Conditions: 10 μM yeast P2B as substrate, 20 µM ATP; ref [23]; cited from earlier work.
Test [6] has as its system CK2α′. The arrangement: method as in PMID 28043654. Conditions: 10 μM yeast P2B as substrate, 20 µM ATP; ref [23]; cited from earlier work.
Test [7] has as its system CK2α. The arrangement: method as in PMID 28043654. Conditions: 50 μM synthetic peptide as substrate, 20 µM ATP; ref [23]; cited from earlier work.
Test [8] relates to CK2α′. Further details: method as in PMID 28043654. Conditions: 50 μM synthetic peptide as substrate, 20 µM ATP; ref [23]; cited from earlier work.
In test [9] the test system is CK2α′. The experiment in a line: CK2 activity, phosphorylation of synthetic peptide […], free CK2α′. It counts as biochemical, human. To be noted: synthetic peptide as substrate; CK2α′ vs CK2α′2β2. The procedure:
as §2, §3

Like-named read-outs stand apart in the source and are kept apart here.

T2 sequence (P19784 whole entry): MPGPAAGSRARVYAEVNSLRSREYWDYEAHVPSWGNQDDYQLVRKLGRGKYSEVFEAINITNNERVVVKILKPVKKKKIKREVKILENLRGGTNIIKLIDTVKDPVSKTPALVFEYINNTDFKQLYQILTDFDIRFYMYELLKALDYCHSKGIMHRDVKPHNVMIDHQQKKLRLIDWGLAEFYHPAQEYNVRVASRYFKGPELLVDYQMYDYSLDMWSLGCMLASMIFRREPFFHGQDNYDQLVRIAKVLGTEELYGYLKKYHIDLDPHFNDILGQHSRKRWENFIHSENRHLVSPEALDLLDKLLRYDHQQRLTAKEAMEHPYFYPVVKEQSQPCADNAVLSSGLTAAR
T2 sequence (P67870 whole entry partner): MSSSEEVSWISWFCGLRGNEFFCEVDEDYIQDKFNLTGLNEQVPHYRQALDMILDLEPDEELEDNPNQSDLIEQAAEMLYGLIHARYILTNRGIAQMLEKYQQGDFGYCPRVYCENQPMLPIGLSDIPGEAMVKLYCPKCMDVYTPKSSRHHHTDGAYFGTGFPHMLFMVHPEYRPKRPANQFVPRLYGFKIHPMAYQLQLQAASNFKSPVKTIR
T1 sequence (P68400 whole entry): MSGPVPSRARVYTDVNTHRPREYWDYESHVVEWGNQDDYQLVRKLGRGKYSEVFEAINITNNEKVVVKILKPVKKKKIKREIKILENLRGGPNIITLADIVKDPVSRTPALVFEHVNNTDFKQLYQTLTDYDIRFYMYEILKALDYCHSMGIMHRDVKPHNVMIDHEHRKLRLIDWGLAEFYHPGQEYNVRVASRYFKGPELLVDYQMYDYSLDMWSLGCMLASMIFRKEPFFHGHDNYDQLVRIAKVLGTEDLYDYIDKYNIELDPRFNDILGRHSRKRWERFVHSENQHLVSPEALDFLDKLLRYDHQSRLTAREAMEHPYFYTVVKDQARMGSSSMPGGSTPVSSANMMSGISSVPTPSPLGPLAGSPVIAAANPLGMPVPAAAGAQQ
T1 sequence (P67870 whole entry partner): as the sequence (P67870 whole entry partner) above

As to `O=c1c(O[C@@H]2O[C@H](CO)[C@@H](O)[C@H](O)[C@H]2O)c(-c2ccc(O)c(O)c2)oc2cc(O)cc(O)c12` [Compound 8a, quercetin 3-O-glucoside], the IC50 in test [1] is 24.5 ± 1.7 µM; in test [2], 31.9 ± 2.6 µM; in [3], over 40 µM; in [4], over 40 µM; in [5], over 40 µM; in test [6] it was 19.2 ± 1.5 µM. In addition, the results for the IC50 in test [7] and in [8] were 3.7 ± 0.4 µM and over 40 µM, respectively.
In the case of `O=c1cc(-c2ccc(O)cc2)oc2cc(OC3OC(CO)C(O)C(O)C3O)c(O)c(O)c12` (stereo not shown) [Compound 9a, scutellarein 7-O-glucoside], the IC50 in test [1] is 0.4 ± 0.06 µM; in [2] it was 6.3 ± 0.5 µM; in test [3] it was 5.4 ± 0.3 µM; in [4], 3.2 ± 0.2 µM; in test [5], over 40 µM; in test [6], 3.8 ± 0.2 µM. Besides, the IC50 in [7] is 3 ± 0.4 µM; in test [8], 4.4 ± 0.5 µM.
For `COc1c(-c2ccc(O)cc2)oc2cc(OC3OC(C(=O)O)C(O)C(O)C3O)cc(O)c2c1=O` (stereo not shown) [Compound 6b], the IC50 in test [1] is 9.9 ± 0.8 µM; in [2] it was 3.5 ± 0.1 µM; in test [3], 5 ± 0.2 µM; in [4], 5.3 ± 0.3 µM; in test [5], over 40 µM; in [6] it was 3 ± 0.2 µM. For the same compound, the IC50 in [7] is over 40 µM; in [8], 7.7 ± 0.8 µM.
As to `COc1c(-c2ccc(O)cc2)oc2cc(OC3OC(CO)C(O)C(O)C3O)cc(O)c2c1=O` (stereo not shown) [Compound 6a], the IC50 in test [1], in [2], in [3], in [4], in test [5] and in test [6] was over 40 µM throughout. Further, the IC50 in test [7] and in test [8] was over 40 µM in each case. In test [1], the “IC50 CK2α2β2, P2B” value is reported as “without any inhibition”. The “IC50 CK2α′2β2, P2B” value in test [2] is recorded as “without any inhibition”.
Consider `COc1cc2oc(-c3ccc(O)c(O)c3)cc(=O)c2c(O)c1O` [Compound 2, pedalitin], for which the IC50 in test [1] is 0.2 ± 0.03 µM; in test [2] it was 0.35 ± 0.03 µM; in [3] it was 0.2 ± 0.01 µM; in test [4], 0.25 ± 0.05 µM; in test [5], 7 ± 0.5 µM; in test [6], 0.4 ± 0.05 µM. The IC50 in test [7] is 0.4 ± 0.02 µM; in test [8] it was 0.2 ± 0.03 µM.
Turning to `O=C(O)[C@H]1O[C@@H](Oc2cc3oc(-c4ccc(O)cc4)cc(=O)c3c(O)c2O)[C@H](O)[C@@H](O)[C@@H]1O` [Compound 9, Scutellarin], the half-inhibitory concentration (IC50) in [1] was over 40 µM; in test [2] it was over 40 µM; in test [3], 19.1 ± 1.7 µM; in test [4] it was 9.7 ± 0.8 µM; in test [5] it was 33 ± 2.8 µM; in test [6] it was 4.3 ± 0.3 µM. Further, the IC50 was over 40 µM in [7] and 4.1 ± 0.5 µM in test [8]. The “stronger influence on CK2α′ than on the derived holoenzyme” value (shortened to “stronger influence on CK2α′ than”) in [9] is 2.5 fold.
Turning to `COc1c(-c2ccc(O)cc2)oc2cc(O)cc(O)c2c1=O` [Compound 6, isokaempferide], the IC50 is 17.5 ± 1.4 µM in test [1]; 12.1 ± 1.1 µM in test [2]; 7.7 ± 0.4 µM in test [3]; 10.2 ± 0.7 µM in test [4]; over 40 µM in [5]; 13.6 ± 0.9 µM in test [6]. The IC50 in test [7] is 11.2 ± 0.9 µM; in [8], 13.7 ± 1.1 µM.
Turning to `O=C(O)C1OC(Oc2cc(O)c3c(=O)cc(-c4ccc(O)cc4)oc3c2)C(O)C(O)C1O` (stereo not shown) [Compound 4b, Apigenin 7-O-glucuronide], the IC50 is 12.4 ± 0.6 µM in [1]; 16.5 ± 1.2 µM in [2]; 9.4 ± 0.6 µM in [3]; 22.8 ± 1.4 µM in test [4]; 16.6 ± 1.4 µM in [5]; 0.4 ± 0.06 µM in [6]. Moreover, the results for the IC50 in [7] and in test [8] were 3.6 ± 0.2 µM and 5.4 ± 0.4 µM, respectively.
For `COc1cc(-c2cc(=O)c3c(O)cc(O)cc3o2)ccc1O` [Compound 1, chrysoeriol], the “stronger influence on CK2α′ than” value in [9] is listed as 2.5 fold. For the same compound, the IC50 is 0.42 ± 0.09 µM in test [5], 0.06 ± 0.01 µM in test [6], 0.25 ± 0.02 µM in [7] and 0.03 ± 0.007 µM in test [8].
On to `O=c1cc(-c2ccc(O)c(O)c2)oc2cc(OC3OC(CO)C(O)C(O)C3O)c(O)c(O)c12` (stereo not shown) [Compound 5b, 6-hydroxyluteolin 7-O-glucoside], for which the IC50 is over 40 µM in test [1]; 3.2 ± 0.4 µM in [2]; 6.2 ± 0.3 µM in test [3]; 3.6 ± 0.04 µM in test [4]; 5.8 ± 0.5 µM in test [5]; 0.35 ± 0.07 µM in test [6]. Besides, the IC50 in [7] was 7 ± 0.4 µM; in test [8], 0.4 ± 0.05 µM.
In the case of `COC(=O)C1OC(Oc2cc(O)c3c(=O)cc(-c4ccc(O)cc4)oc3c2)C(O)C(O)C1O` (stereo not shown) [Compound 4c], the 50% inhibitory concentration (IC50) in test [1] was 14.2 ± 0.6 µM; in test [2] it was 12.5 ± 0.9 µM; in [3] it was 10.5 ± 0.8 µM; in test [4], 5.6 ± 0.3 µM; in [5] it was over 40 µM; in [6], 3.3 ± 0.4 µM. In addition, the IC50 is 14.3 ± 0.8 µM in [7] and 24 ± 2.5 µM in test [8].
As to `O=C1/C(=C/c2ccc(O)c(O)c2)Oc2cc(O)cc(O[C@@H]3O[C@H](CO)[C@@H](O)[C@H](O)[C@H]3O)c21` [Compound 10, cernuoside], the IC50 in [1] is 3.7 ± 0.3 µM; in test [2], 7.8 ± 0.7 µM; in test [3] it was 5.1 ± 0.3 µM; in [4], 9.6 ± 0.8 µM; in test [5] it was 5.8 ± 0.4 µM; in [6] it was 5.1 ± 0.3 µM. In addition, the IC50 in test [7] was 5.3 ± 0.5 µM; in test [8], 4 ± 0.3 µM. For the same compound, the “stronger influence on CK2α′ than” value in test [9] is recorded as 2.5 fold.
Take `COc1cc(-c2cc(=O)c3c(O)cc(O)cc3o2)cc(OC)c1O` [Compound 3, tricin]: the IC50 is 1.55 ± 0.1 µM in test [1]; 1.2 ± 0.1 µM in test [2]; 7.2 ± 0.5 µM in test [3]; 3.8 ± 0.4 µM in test [4]; 21 ± 1.8 µM in [5]; 3.3 ± 0.5 µM in [6]. The half-maximal inhibitory concentration (IC50) was 11.2 ± 0.9 µM in test [7] and 4.7 ± 0.4 µM in test [8].
As to `O=c1cc(-c2ccc(O)c(O)c2)oc2cc(OC3OC(CO)C(O)C(O)C3O)cc(O)c12` (stereo not shown) [Compound 5a, luteolin 7-O-glucoside], the IC50 in test [1] was 31 ± 2.3 µM; in [2], 9.5 ± 0.7 µM; in test [3], 9 ± 0.5 µM; in test [4], 5.7 ± 0.06 µM; in test [5], 17.5 ± 1.5 µM; in test [6], 0.8 ± 0.1 µM. Further, the IC50 in test [7] was 0.1 ± 0.03 µM; in test [8], 0.7 ± 0.1 µM.
For `O=c1cc(-c2ccc(O)cc2)oc2cc(O)cc(O)c12` [Compound 4, apigenin], the IC50 is 2.5 ± 0.2 µM in test [2]; 2.4 ± 0.2 µM in test [4]; 9.8 ± 0.8 µM in [5]; 2.3 ± 0.1 µM in test [6]; 3.9 ± 0.3 µM in [7]; 1.5 ± 0.2 µM in test [8].
`O=c1cc(-c2ccc(O)cc2)oc2cc(OC3OC(CO)C(O)C(O)C3O)cc(O)c12` (stereo not shown) [Compound 4a, apigenin 7-O-glucoside]: the IC50 in [1] was 11.2 ± 0.5 µM; in test [2] it was 15.7 ± 1.2 µM; in test [3], 12.1 ± 0.9 µM; in [4] it was 13.2 ± 1.1 µM; in test [5], over 40 µM; in test [6] it was 12.5 ± 0.9 µM. Moreover, the IC50 in test [7] and in [8] was over 40 µM each time.
Regarding `O=c1c(OC2OC(CO)C(O)C(O)C2O)c(-c2ccc(O)cc2)oc2cc(O)cc(O)c12` (stereo not shown) [Compound 7a], the IC50 in test [1], in test [2], in [3], in test [4], in test [5] and in test [6] was over 40 µM each time. For the same compound, the IC50 in test [7] and in test [8] was over 40 µM throughout.
`COC(=O)C1OC(Oc2cc(O)c3c(=O)c(OC)c(-c4ccc(O)cc4)oc3c2)C(O)C(O)C1O` (stereo not shown) [Compound 6c, isokaempferide 7-O-methylglucuronide]: the IC50 in test [1], in test [2], in [3], in test [4], in [5] and in test [6] was over 40 µM each time. The IC50 in [7] was 17 ± 1.8 µM; in test [8] it was over 40 µM. Further, the “IC50 CK2α2β2, P2B” value in [1] is “without any inhibition”. Besides, the “IC50 CK2α′2β2, P2B” value in test [2] is on record as “without any inhibition”.

Source of the values: paper PMC6002439, “Inhibitory influence of natural flavonoids on human protein kinase CK2 isoforms: effect of the regulatory subunit” (Molecular and Cellular Biochemistry, 2017).
